In test [1] the test system is GP2d cells (KRAS G12D). The test can be described thus: Cell-based pERK HTRF assay in GP2d cell (Biological Example 2). The conditions noted are these: GP2d, GP2d (KRAS G12D) cells. In short, it runs like this:
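Phospho-ERK in lysed cells was detected by HTRF using Eu cryptate and d2 antibodies, read between 4 and 24 h at room temperature. Prior to lysis, KRAS G12D GP2d cells, seeded the day before in DMEM with 10% FBS, were exposed to compounds for 60 min. Compounds were tested as 9-point half-log curves from 1 μM or 100 nM top, with 0.25% DMSO.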
(In general: TR-FRET usually uses a lanthanide donor and a delayed reading to cut background.)

In test [2] the test system is SW620 cells (KRAS G12V). The test can be described thus: Cell-based pERK HTRF assay in SW620 cell (Biological Example 4). As to conditions: Homo sapiens, SW-620, SW620 (KRAS G12V) cells. In short, it runs like this: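 This assay measures inhibition of ERK phosphorylation downstream of KRAS G12V in intact SW620 cells. Compounds are applied for 4 h over nine half-log concentrations starting at 1 μM, and pERK is quantified by HTRF.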

Test [3] concerns the target T1, Avi-KRAS G12C (2-169) GTP/RAF1 RBD-3xFLAG (51-131) (Homo sapiens, UniProt P01116, G12C).
T1 construct: Avi-KRAS G12C (2-169)
The test can be described thus: Raf1-KRAS G12C-GTP disruption HTRF assay (Biological Example 3). The format is binding. As to conditions: KRAS G12C, GTP-loaded. In a few lines: (§1)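 Compounds were titrated 10-point, 3-fold from 30 μM against preformed KRAS-GTP:RAF1 RBD (51-131) complexes at 50 nM, using KRAS 2-169 as WT, G12C, G12D or G12V. After 1 h at room temperature in Tris pH 7.5 buffer with MgCl2 and 10% DMSO, time-resolved fluorescence was read. Results are percent activity versus DMSO.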

The target of test [4] is T2, Avi-KRAS WT (2-169) GTP/RAF1 RBD-3xFLAG (51-131) (Homo sapiens, UniProt P01116).
T2 construct: Avi-KRAS WT (2-169)
As to the kind of experiment: Raf1-KRAS WT-GTP disruption HTRF assay (Biological Example 3). The conditions noted are these: KRAS WT, GTP-loaded. The format is binding. In a few lines: as §1

The target in test [5] is T3, Avi-KRAS G12V (2-169) GTP/RAF1 RBD-3xFLAG (51-131) (Homo sapiens, UniProt P01116, G12V).
T3 construct: Avi-KRAS G12V (2-169)
As to the kind of experiment: Raf1-KRAS G12V-GTP disruption HTRF assay (Biological Example 3). The format is binding. The conditions noted are these: KRAS G12V, GTP-loaded. In short, it runs like this:
as §1

The target in test [6] is T4, Avi-KRAS G12D (2-169) GTP/RAF1 RBD-3xFLAG (51-131) (Homo sapiens, UniProt P01116, G12D).
T4 construct: Avi-KRAS G12D (2-169)
As to the kind of experiment: Raf1-KRAS G12D-GTP disruption HTRF assay (Biological Example 3). The format is binding. As to conditions: KRAS G12D, GTP-loaded. In a few lines:
as §1

T3 sequence (P01116 2-169 isoform P01116-2 G12V): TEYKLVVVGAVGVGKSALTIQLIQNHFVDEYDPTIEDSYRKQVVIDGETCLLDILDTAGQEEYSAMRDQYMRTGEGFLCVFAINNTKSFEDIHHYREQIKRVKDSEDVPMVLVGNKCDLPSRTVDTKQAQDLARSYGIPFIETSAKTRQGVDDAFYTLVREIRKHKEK
T4 sequence (P01116 2-169 isoform P01116-2 G12D): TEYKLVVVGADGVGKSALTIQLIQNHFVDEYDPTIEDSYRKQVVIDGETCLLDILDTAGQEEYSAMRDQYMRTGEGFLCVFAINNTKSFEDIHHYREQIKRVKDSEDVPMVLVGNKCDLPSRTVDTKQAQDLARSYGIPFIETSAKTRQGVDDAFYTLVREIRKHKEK
T1 sequence (P01116 2-169 isoform P01116-2 G12C): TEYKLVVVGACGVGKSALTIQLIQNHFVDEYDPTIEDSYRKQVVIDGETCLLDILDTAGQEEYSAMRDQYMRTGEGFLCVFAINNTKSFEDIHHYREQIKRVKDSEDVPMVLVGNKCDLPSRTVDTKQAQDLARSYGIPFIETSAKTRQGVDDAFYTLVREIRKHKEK
T2 sequence (P01116 2-169 isoform P01116-2): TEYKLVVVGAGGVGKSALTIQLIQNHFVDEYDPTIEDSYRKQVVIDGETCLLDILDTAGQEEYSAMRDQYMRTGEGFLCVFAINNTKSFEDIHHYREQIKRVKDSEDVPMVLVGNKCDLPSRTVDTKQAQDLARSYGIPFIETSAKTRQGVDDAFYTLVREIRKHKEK

In general, IC50 refers to the concentration that inhibits the measured activity by half. The low end stands for inhibition by little substance, the high end for a need for much substance. In the case of `CCN(c1nc(OC[C@@]23CCCN2C[C@H](F)C3)nc2c(F)c(-c3ccc(F)c4sc(N)c(C#N)c34)c(C(F)(F)F)cc12)[C@H]1CCN(C(=O)c2cnc(Cl)s2)C1` (atropisomer, axis not shown) [Compound 905], the IC50 in test [1] was under 100 nM; in test [2], under 100 nM; in test [3], 100 to 1000 nM; in test [4], 1000 to 10000 nM; in test [5], 100 to 1000 nM; in test [6] it was 100 to 1000 nM.

`CCN(c1nc(OC[C@@]23CCCN2C[C@H](F)C3)nc2c(F)c(-c3ccc(F)c4sc(N)c(C#N)c34)c(C(F)(F)F)cc12)[C@H]1C[C@H]2[C@@H](C)N(C)C(=O)N2C1` (atropisomer, axis not shown) [Compound 910]: the concentration for half-maximal inhibition (IC50) in test [1] is under 100 nM; in test [2] it was under 100 nM; in test [3], 100 to 1000 nM; in test [4], 100 to 1000 nM; in test [5], 100 to 1000 nM; in test [6] it was 100 to 1000 nM.

Turning to `CCN(c1nc(OC[C@@]23CCCN2C[C@H](F)C3)nc2c(F)c(-c3ccc(F)c4sc(N)c(C#N)c34)c(C(F)(F)F)cc12)[C@H]1CCN(C(=O)c2ccc(C)s2)C1` (atropisomer, axis not shown) [Compound 911], the IC50 in test [1] is under 100 nM; in test [2] it was under 100 nM; in test [3] it was 100 to 1000 nM; in test [4] it was 1000 to 10000 nM; in test [5], 100 to 1000 nM; in test [6], 100 to 1000 nM.

Take `CCN(c1nc(OC[C@@]23CCCN2C[C@H](F)C3)nc2c(F)c(-c3ccc(F)c4sc(N)c(C#N)c34)c(C(F)(F)F)cc12)[C@H]1C[C@H](C)N(C(=O)c2cocn2)C1` (atropisomer, axis not shown) [Compound 914]: the IC50 in test [1] is under 100 nM; in test [2] it was under 100 nM; in test [3] it was 100 to 1000 nM; in test [4] it was 100 to 1000 nM; in test [5] it was at most 100 nM; in test [6], 100 to 1000 nM.

On to `CCN(c1nc(OC[C@@]23CCCN2C[C@H](F)C3)nc2c(F)c(-c3ccc(F)c4sc(N)c(C#N)c34)c(C(F)(F)F)cc12)[C@H]1C[C@H](C)N(C(=O)c2coc(C)n2)C1` (atropisomer, axis not shown) [Compound 915], for which the IC50 is under 100 nM in test [1]; under 100 nM in test [2]; 100 to 1000 nM in test [3]; 100 to 1000 nM in test [4]; at most 100 nM in test [5]; at most 100 nM in test [6].

On to `CN(c1nc(OC[C@@]23CCCN2C[C@H](F)C3)nc2c(F)c(-c3ccc(F)c4sc(N)c(C#N)c34)c(C(F)(F)F)cc12)[C@H]1CC(=O)N2CCC[C@@H]12` (atropisomer, axis not shown) [Compound 916], for which the IC50 in test [1] is under 100 nM; in test [2] it was under 100 nM; in test [3], 100 to 1000 nM; in test [4], 100 to 1000 nM; in test [5], 100 to 1000 nM; in test [6] it was 100 to 1000 nM.

Take `CN(Cc1ccno1)c1nc(OC[C@@]23CCCN2C[C@H](F)C3)nc2c(F)c(-c3ccc(F)c4sc(N)c(C#N)c34)c(C(F)(F)F)cc12` (atropisomer, axis not shown) [Compound 917]: the IC50 in test [1] was under 100 nM; in test [2], under 100 nM; in test [3], 1000 to 10000 nM; in test [4], 1000 to 10000 nM; in test [5] it was 100 to 1000 nM; in test [6], 100 to 1000 nM.

Regarding `CCN(c1nc(OC[C@@]23CCCN2C[C@H](F)C3)nc2c(F)c(-c3ccc(F)c4sc(N)c(C#N)c34)c(C(F)(F)F)cc12)[C@H]1CCN(C(=O)[C@@H]2CCO2)[C@@H]1C` (atropisomer, axis not shown) [Compound 918], the concentration for half-maximal inhibition (IC50) in test [1] is under 100 nM; in test [2], under 100 nM; in test [3], at most 100 nM; in test [4] it was at most 100 nM; in test [5] it was at most 100 nM; in test [6] it was at most 100 nM.

`CCN(c1nc(OC[C@@]23CCCN2C[C@H](F)C3)nc2c(F)c(-c3ccc(F)c4sc(N)c(C#N)c34)c(C(F)(F)F)cc12)[C@H]1CCN(C(=O)c2ncc(C)s2)C1` (atropisomer, axis not shown) [Compound 919]: the IC50 in test [1] was under 100 nM; in test [2], under 100 nM; in test [3], 100 to 1000 nM; in test [4] it was 100 to 1000 nM; in test [5], 100 to 1000 nM; in test [6], 100 to 1000 nM.

As for `CCN(c1nc(OC[C@@]23CCCN2C[C@H](F)C3)nc2c(F)c(-c3ccc(F)c4sc(N)c(C#N)c34)c(C(F)(F)F)cc12)[C@H]1CCN(C(=O)c2cccs2)C1` (atropisomer, axis not shown) [Compound 920], the IC50 in test [1] was under 100 nM; in test [2], under 100 nM; in test [3], 100 to 1000 nM; in test [4] it was 100 to 1000 nM; in test [5] it was 100 to 1000 nM; in test [6] it was 100 to 1000 nM.

`CCN(c1nc(OC[C@@]23CCCN2C[C@H](F)C3)nc2c(F)c(-c3ccc(F)c4sc(N)c(C#N)c34)c(C(F)(F)F)cc12)[C@H]1CCN(C(=O)N(C)C)[C@@H]1COC` (atropisomer, axis not shown) [Compound 921]: the IC50 is under 100 nM in test [1]; under 100 nM in test [2]; 100 to 1000 nM in test [3]; 100 to 1000 nM in test [4]; 100 to 1000 nM in test [5]; 100 to 1000 nM in test [6].

`CCN(c1nc(OC[C@@]23CCCN2C[C@H](F)C3)nc2c(F)c(-c3ccc(F)c4sc(N)c(C#N)c34)c(C(F)(F)F)cc12)[C@H]1C[C@H](C)N(C(=O)[C@@H]2CCO2)C1` (atropisomer, axis not shown) [Compound 922]: the IC50 in test [1] is under 100 nM; in test [2] it was under 100 nM; in test [3] it was at most 100 nM; in test [4], 100 to 1000 nM; in test [5], at most 100 nM; in test [6], at most 100 nM.

Consider `CCN(c1nc(OC[C@@]23CCCN2C[C@H](F)C3)nc2c(F)c(-c3ccc(F)c4sc(N)c(C#N)c34)c(C(F)(F)F)cc12)[C@H]1CCN(C(=O)OC)[C@@H]1COC` (atropisomer, axis not shown) [Compound 923], for which the IC50 was under 100 nM in test [1]; under 100 nM in test [2]; 1000 to 10000 nM in test [3]; 100 to 1000 nM in test [4]; 100 to 1000 nM in test [5]; 100 to 1000 nM in test [6].

On to `CCN(c1nc(OC[C@@]23CCCN2C[C@H](F)C3)nc2c(F)c(-c3ccc(F)c4sc(N)c(C#N)c34)c(C(F)(F)F)cc12)[C@H]1CCN(C(C)=O)[C@@H]1COC` (atropisomer, axis not shown) [Compound 924], for which the IC50 in test [1] is under 100 nM; in test [2], under 100 nM; in test [3] it was 100 to 1000 nM; in test [4], 100 to 1000 nM; in test [5] it was 100 to 1000 nM; in test [6], 100 to 1000 nM.

Regarding `CCN(c1nc(OC[C@@]23CCCN2C[C@H](F)C3)nc2c(F)c(-c3ccc(F)c4sc(N)c(C#N)c34)c(C(F)(F)F)cc12)[C@H]1CCN(C(=O)C2CC2)[C@@H]1COC` (atropisomer, axis not shown) [Compound 925], the IC50 in test [1] was under 100 nM; in test [2], under 100 nM; in test [3], 100 to 1000 nM; in test [4], 100 to 1000 nM; in test [5], 100 to 1000 nM; in test [6], 100 to 1000 nM.

Take `CCN(c1nc(OC[C@@]23CCCN2C[C@H](F)C3)nc2c(F)c(-c3ccc(F)c4sc(N)c(C#N)c34)c(C(F)(F)F)cc12)[C@H]1C[C@H](C)N(C(=O)OC2COC2)C1` (atropisomer, axis not shown) [Compound 926]: the IC50 in test [1] is under 100 nM; in test [2] it was under 100 nM; in test [3], 100 to 1000 nM; in test [4], 100 to 1000 nM; in test [5], 100 to 1000 nM; in test [6], 100 to 1000 nM.

Take `CCN(c1nc(OC[C@@]23CCCN2C[C@H](F)C3)nc2c(F)c(-c3ccc(F)c4sc(N)c(C#N)c34)c(C(F)(F)F)cc12)[C@H]1CCN(C(=O)c2nccs2)C1` (atropisomer, axis not shown) [Compound 927]: the IC50 was under 100 nM in test [1]; under 100 nM in test [2]; 100 to 1000 nM in test [3]; 100 to 1000 nM in test [4]; 100 to 1000 nM in test [5]; 100 to 1000 nM in test [6].

Consider `CCN(c1nc(OC[C@@]23CCCN2C[C@H](F)C3)nc2c(F)c(-c3ccc(F)c4sc(N)c(C#N)c34)c(C(F)(F)F)cc12)[C@@H]1CCN(C(=O)[C@@H]2CCO2)[C@@H]1C` (atropisomer, axis not shown) [Compound 931], for which the IC50 in test [1] is under 100 nM; in test [2] it was under 100 nM; in test [3], 100 to 1000 nM; in test [4], 100 to 1000 nM; in test [5], 100 to 1000 nM; in test [6], 100 to 1000 nM.
